According to US20230248723A1, “PYRROLO[2,3-B]PYRAZINE COMPOUNDS AS CCCDNA INHIBITORS FOR THE TREATMENT OF HEPATITIS B VIRUS (HBV) INFECTION” (Hoffmann-La Roche Inc., priority 2017, published 2023):
Like-named read-outs stand apart in the source and are kept apart here.

Experiments:
Type in all cases: cell-based
HBeAg = assay: HBeAg, multiplex assay, HBV-infected PHH; details: for IC50: Hepatitis B virus, read-out: HBeAg IC50 (μM) Median, PHH, patient-derived HBV (GT D)
Protocol: (§1) Fresh primary human hepatocytes (PXB-PHH) harvested from humanized mice (uPA/SCID mice)—herein called PHH—were obtained from PhoenixBio Co., Ltd (Japan). Cells were seeded on a collagen I-coated plate at the following cell density: 35,000 cells/well (384-well), 70,000 cells/well (96-well), or, 400,000 cells/well (24-well) in modified hepatocyte clonal growth medium (dHCGM). dHCGM is a DMEM medium containing 100 U/ml Penicillin, 100 μg/ml Streptomycin, 20 mM Hopes, 44 mM NaHCO3, 15 μg/ml L-proline, 0.25 μg/ml insulin, 50 nM Dexamethazone, 5 ng/ml EGF, 0.1 mM Asc-2P, 2% DMSO and 10% FBS (Ishida et al., 2015). Cells were cultured at 37° C. incubator in a humidified atmosphere with 5% CO2. Culture medium was replaced 24 h post-plating and every 2 days until harvest.
(§2) Following 4 day of maturation with 1 μM MB-1, HLC were incubated with HBV (purified from CHB individuals) at multiplicity of infection (MOI) 10-40 without PEG for 24 hr; virus inoculum was removed the following day. […] Compound treatment in HLC and PHH was started at day 3 post infection. Compound (in powder) was dissolved in DMSO; the final concentration of DMSO added to cells is 1%. Fresh compound was replenished every 2 day until cells were harvested at day 10 (PHH), or day 14 (HLC). Compound effect on HBV and cellular toxicity was measured by multiplex assay (HBsAg, HBeAg, albumin), branched DNA (pgRNA), or digital PCR (cccDNA) and depicted as % of inhibition compared to DMSO control. Graphs were prepared using Spotfire software.
(§3) A custom, Luminex-based multiplex assay that simultaneously measured HBeAg, albumin, and HBsAg was developed by Radix BioSolutions (Georgetown, Tex.). This is a sandwich immunoassay; each capture antibody was coupled with xMAP™ Luminex magnetic beads. The dynamic ranges of analyte detection are as follows: HBeAg (1-316 ng/ml), albumin (3.1-10,000 ng/ml), and HBsAg (0.1-100 ng/ml) with coefficient variant (CV) […]. Samples were read on FlexMAP 3D (Luminex) and analyzed by Genedata software.

[1] = test system: albumin (secreted, cellular toxicity marker); assay: Albumin (in vitro cellular tox marker), multiplex assay, PHH; details: human, primary human hepatocytes (PXB-PHH) infected with HBV, patient-derived HBV (GT D), read-out: In vitro tox albumin IC50 (μM) Median
Protocol: as §1, §2, §3

pgRNA = pgRNA assay (branched DNA), HBV-infected PHH; details: patient-derived HBV (GT D), read-out: pgRNA IC50 (μM) Median
Protocol: as §1, §2
Levels of pgRNA in infected cells (96-well plate) were measured using QuantiGene Singleplex 2.0 assay (Affymetrix), a hybridization-based assay that utilizes the xMAP™ Luminex magnetic beads and branched DNA (bDNA) signal amplification technology. The assay is performed in 96-well plate according to manufacturer's recommendation. Briefly, cells were lysed and lysates were incubated with HBV probe sets panel at 50-55° C. for 30 min then stored at −80° C. Signal amplification is achieved via sequential hybridization of PreAmplifier, Amplifier, and Label Probe. After adding Streptavidin phycoerythrin (SAPE) substrate, the signal is read using a FlexMap 3D (Luminex) instrument.

HBsAg = assay: HBsAg, multiplex assay, HBV-infected PHH; details: for IC50: Hepatitis B virus, read-out: HBsAg IC50 (μM) Median, PHH, patient-derived HBV (GT D)
Protocol: as §1, §2, §3

cccDNA = cccDNA assay (digital PCR), HBV-infected PHH; details: for IC50: Hepatitis B virus, patient-derived HBV (GT D), read-out: cccDNA IC50 (μM) Median
Protocol: as §1
Following 4 day of maturation with 1 μM MB-1, HLC were incubated with HBV (purified from CHB individuals) at multiplicity of infection (MOI) 10-40 without PEG for 24 hr; virus inoculum was removed the following day. HBV infection in PHH was performed at MOI 40+4% PEG. Compound treatment in HLC and PHH was started at day 3 post infection. Compound (in powder) was dissolved in DMSO; the final concentration of DMSO added to cells is 1%. Fresh compound was replenished every 2 day until cells were harvested at day 10 (PHH), or day 14 (HLC). Compound effect on HBV and cellular toxicity was measured by multiplex assay (HBsAg, HBeAg, albumin), branched DNA (pgRNA), or digital PCR (cccDNA) and depicted as % of inhibition compared to DMSO control. Graphs were prepared using Spotfire software.
HBV-infected cells (in 384- or 96-well plate) were lysed with Cells-to-CT Lysis Reagents according to manufacturer's instruction (Thermo Scientific). To remove excess of RC-DNA, samples were digested with T5 exonuclease (10 U) (New England Biolabs), at 37° C. for 1 hr; enzyme was inactivated by heating the samples at 80° C. for 15 min. DNA samples (1.2 μl) were added into the digital PCR Master Mix (QuantStudio Digital PCR Kit, Thermo Scientific) containing cccDNA primers 5′-[…] (forward), 5′-[…] (reverse), and […] (probe) (Werle-Lapostolle et al., 2004) in a total volume 5 μl, and loaded into dPCR array using AccuFill System (AB). Each sample was loaded into 4 subarrays/256 through-holes. Digital PCR assay was run on QuantStudio 12K Flex (AB) and data was analyzed by Digital Suite Software (AB).

HBV DNA = HBV DNA in culture medium of HBV-infected PHH; details: PHH, patient-derived HBV GT D, MOI 40, treatment from day 3, day 10 pi
Description: FIG. 8: Establishment of dPCR assay for cccDNA quantification. […] A 3.2-kb, linearized plasmid HBV is used as a standard curve for relative quantification of HBV DNA by TaqMan-PCR. […] (B) Testing primer & PCR specificity and removal of excess RC-DNA. In contrast to TaqMan-PCR (relative quantification method), digital PCR (dPCR) is an absolute quantification method without the need of standard curve. […] First step—Testing primer and PCR specificity. Serum-derived HBV (contains RC-DNA, devoid of cccDNA) was used as a DNA template for dPCR using 2 sets of primers (for HBV core and cccDNA region) (Werle-Lapostolle et al., 2004). Samples were amplified by dPCR on QuantStudio 12K Flex Real-Time PCR System (AB); 4 subarrays (256 through-holes) were used for each sample. […] Second step—Removal of excess RC-DNA. PHH seeded in 96-well were infected with HBV. At day 6 pi, cell lysates were digested with Plasmid safe, ATP-dependent, DNAse (PSAD), T5 exonuclease, or, T5 exonuclease followed by EcoRI, for 1 hr at 37° C. Samples were amplified by dPCR using cccDNA primers on QuantStudio 12K Flex Real-Time PCR System (AB); 4 subarrays (256 through-holes) were used for each sample. […] Fresh medium and compound was replenished every 2 day. At day 10 pi, culture media were harvested and measured for HBV DNA, HBsAg, and HBeAg. Albumin was used as a surrogate of in vitro tox marker. Cells were lysed and treated with T5 exonuclease, cccDNA was then measured by dPCR on QuantStudio 12K Flex Real-Time PCR System (AB); 4 subarrays (256 through-holes) were used for each sample. […] Cells were treated with compounds at the indicated concentrations starting from day 3 post infection (patient-derived HBV, GT D). Fresh medium and compound was replenished every 2 day. Cells were harvested at day 10 pi; viral markers and albumin were measured from culture medium.
HBV from sera of CHB individuals were purified using OptiPrep™ (Axis-Shield, Norway) density gradient. Briefly, OptiPrep™ stock solution (60%) was diluted to 50% and 10% in PBS; equal volume of each solution was then added into SW41 tubes (BD Biosciences). Linear gradient was performed by placing the tubes on Gradient Master 108™ (Biocomp) at setting: 800, 25 rpm for 30″. Two hundred microliter (200 μl) of serum was overlaid on the top of gradient and samples were centrifuged at 100,000×g for 2 hours at 4° C. […] Fractions containing the peak of HBV DNA were pooled and used as virus inoculum for all infection experiments. All fractions were stored at −80° C. until used.
Fresh primary human hepatocytes (PXB-PHH) harvested from humanized mice (uPA/SCID mice)—herein called PHH—were obtained from PhoenixBio Co., Ltd (Japan).

[2] = PHH, patient-derived HBV GT D, MOI 40, treatment from day 3, day 10 pi

## CC(C)(CO)NC(=O)c1c[nH]c2ncc(C3CC3)nc12 [compound 1]
HBeAg
  IC50: 0.17 µM
[1]
  IC50 at 7 days: 18.7 µM
pgRNA; Hepatitis B virus
  IC50: 14.2 µM
HBsAg
  IC50: 0.17 µM
cccDNA
  IC50: 52.7 µM

## O=C(NC1(CO)CCCC1)c1c[nH]c2ncc(C3CC3)nc12 [compound 2]
HBeAg
  IC50: 0.68 µM
[1]
  IC50 at 7 days: 24.2 µM
HBsAg
  IC50: 0.68 µM
cccDNA
  IC50: 30.1 µM

## CC(C)(O)C(CCO)NC(=O)c1c[nH]c2ncc(C3CC3)nc12 (stereo not drawn) [compound 3]
HBeAg
  IC50: 3.58 µM
[1]
  IC50 at 7 days: 33.4 µM
pgRNA; Hepatitis B virus
  IC50: 12.8 µM
HBsAg
  IC50: 3.62 µM
cccDNA
  IC50: 43.7 µM

## CC[C@@H](CO)NC(=O)c1c[nH]c2ncc(C3CC3)nc12 [compound 4]
HBeAg
  IC50: 0.68 µM
[1]
  IC50 at 7 days: 48 µM
pgRNA; Hepatitis B virus
  IC50: < 10 µM
pgRNA
  IC50: 6.93 µM
HBsAg
  IC50: 0.68 µM
cccDNA
  IC50: 63.7 µM

## C[C@H](CO)NC(=O)c1c[nH]c2ncc(C3CC3)nc12 [compound 5]
HBeAg
  IC50: 2.95 µM
[1]
  IC50 at 7 days: 135 µM
pgRNA; Hepatitis B virus
  IC50: ≥ 100 µM
HBsAg
  IC50: 5.61 µM
cccDNA
  IC50: 160 µM

## O=C(NC1(CO)CCOCC1)c1c[nH]c2ncc(C3CC3)nc12 [compound 6]
HBeAg
  IC50: 0.49 µM
[1]
  IC50 at 7 days: ≥ 166 µM
pgRNA; Hepatitis B virus
  IC50: 15.7 µM
HBsAg
  IC50: 0.75 µM
cccDNA
  IC50: ≥ 166 µM

## C[C@@H](CO)NC(=O)c1c[nH]c2ncc(C3CC3)nc12 [compound 8]
HBeAg
  IC50: 2.29 µM
[1]
  IC50 at 7 days: 31.9 µM
HBsAg
  IC50: 1.22 µM
cccDNA
  IC50: 30.8 µM

## CC(C)(O)C(C)(C)NC(=O)c1c[nH]c2ncc(C3CC3)nc12 [compound 9]
HBeAg
  IC50: 0.68 µM
[1]
  IC50 at 7 days: 21.3 µM
HBsAg
  IC50: 0.51 µM
cccDNA
  IC50: 49.2 µM

## C=C1[C@H](CO)[C@@H](O)C[C@@H]1n1cnc2c(=O)[nH]c(N)nc21 [entecavir, reference compound]
HBeAg; [2]
  effect on HBeAg (other viral markers): no effect
HBsAg; [2]
  effect on HBsAg (other viral markers): no effect
cccDNA; patient-derived HBV GT D, MOI 40, treatment from day 3, day 10 pi, dPCR
  effect on cccDNA (other viral markers): no effect
HBV DNA
  effect on HBV DNA: highly potent
